Values of other authors in patent publication US5110799A, “Antiherpetic agents” (Merck & Co., Inc., priority 1989, dated 1992).

Target: ribonucleotide reductase enzyme of herpes simplex virus (Human herpesvirus 1, UniProt P08543)
Conditions: in vitro; Dutia et al., Cohen et al., U.S. Pat. No. 4,795,740

ribonucleotide reductase enzyme of herpes simplex virus, sequence (P08543 whole entry): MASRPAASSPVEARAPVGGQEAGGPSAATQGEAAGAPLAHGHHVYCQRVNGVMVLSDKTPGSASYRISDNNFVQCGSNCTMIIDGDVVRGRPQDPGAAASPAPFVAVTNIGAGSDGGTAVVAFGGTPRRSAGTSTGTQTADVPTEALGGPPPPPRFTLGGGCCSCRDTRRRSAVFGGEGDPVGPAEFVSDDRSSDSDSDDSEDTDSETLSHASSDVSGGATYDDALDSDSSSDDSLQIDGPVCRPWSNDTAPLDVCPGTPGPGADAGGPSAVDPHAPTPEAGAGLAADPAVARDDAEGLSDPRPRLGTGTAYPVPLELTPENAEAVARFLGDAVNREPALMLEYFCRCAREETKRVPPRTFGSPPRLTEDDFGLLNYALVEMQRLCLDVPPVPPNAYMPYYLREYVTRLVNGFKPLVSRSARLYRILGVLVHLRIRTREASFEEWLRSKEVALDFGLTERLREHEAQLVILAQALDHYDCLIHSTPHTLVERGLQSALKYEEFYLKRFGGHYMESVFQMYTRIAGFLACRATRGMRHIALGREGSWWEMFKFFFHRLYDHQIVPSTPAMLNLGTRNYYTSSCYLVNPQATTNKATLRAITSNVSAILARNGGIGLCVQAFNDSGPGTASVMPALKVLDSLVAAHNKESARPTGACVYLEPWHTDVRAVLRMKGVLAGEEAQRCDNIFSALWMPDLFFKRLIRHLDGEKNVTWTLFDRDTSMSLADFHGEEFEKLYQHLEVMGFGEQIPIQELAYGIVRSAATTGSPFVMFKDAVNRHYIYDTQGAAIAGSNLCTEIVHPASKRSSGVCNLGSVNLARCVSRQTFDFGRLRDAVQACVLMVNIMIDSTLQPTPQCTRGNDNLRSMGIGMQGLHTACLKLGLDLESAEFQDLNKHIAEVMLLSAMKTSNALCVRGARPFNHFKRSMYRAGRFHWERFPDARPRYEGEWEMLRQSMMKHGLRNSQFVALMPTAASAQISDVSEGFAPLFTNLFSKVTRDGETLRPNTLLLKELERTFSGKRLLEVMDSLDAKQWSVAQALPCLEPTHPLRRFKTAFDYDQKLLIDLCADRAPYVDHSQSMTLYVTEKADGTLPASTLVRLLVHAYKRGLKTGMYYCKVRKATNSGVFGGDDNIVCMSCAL

Substance	inhibition of the activity of HSV ribonucleotide reductase
Tyr Ala Gly Ala Val Val Asn Asp Leu	inhibited in vitro the activity of this enzyme
Tyr gly Ala Val Val Asn Asp Leu	inhibited in vitro the activity of this enzyme
